From patent US12428413B2 (CHDI Foundation, Inc., priority 2019, dated 2025)
Like-named read-outs stand apart in the source and are kept apart here.

Experiments:
[1] = target: T1, human catalytic domain ROCK II protein (amino acids 5-554) with a N-terminal GST tag (Homo sapiens, UniProt O75116)
[2] = test system: cellular ROCK activity (cofilin phosphorylation at Ser3) in A7r5 rat smooth muscle cells; assay: Cellular ROCK activity: cofilin (Ser3) phosphorylation, In-Cell Western assay; assay type: cell-based; conditions: Rattus norvegicus, A7R5, 1 h, 1 hour compound incubation, phospho-cofilin (Ser3), read-out: CELL_IC50
Method in brief: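 A7r5 rat smooth muscle cells (3000/well, overnight) exposed to compound for 1 h at 37° C., then formaldehyde-fixed. Phospho-cofilin Ser3 detected by In-Cell Western with 800CW secondary antibody, read at 700 and 800 nm on an Odyssey imager.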

[3] = target: T1, human catalytic domain ROCK II protein (amino acids 5-554) with a N-terminal GST tag; assay: biochemical
[4] = test system: hepatic ischemia/reperfusion in rats; conditions: oral pretreatment, 25% in vehicle-treated animals; cited from earlier work
[5] = from 1 through 7 hours after instillation; cited from earlier work

T1 sequence (O75116 5-554): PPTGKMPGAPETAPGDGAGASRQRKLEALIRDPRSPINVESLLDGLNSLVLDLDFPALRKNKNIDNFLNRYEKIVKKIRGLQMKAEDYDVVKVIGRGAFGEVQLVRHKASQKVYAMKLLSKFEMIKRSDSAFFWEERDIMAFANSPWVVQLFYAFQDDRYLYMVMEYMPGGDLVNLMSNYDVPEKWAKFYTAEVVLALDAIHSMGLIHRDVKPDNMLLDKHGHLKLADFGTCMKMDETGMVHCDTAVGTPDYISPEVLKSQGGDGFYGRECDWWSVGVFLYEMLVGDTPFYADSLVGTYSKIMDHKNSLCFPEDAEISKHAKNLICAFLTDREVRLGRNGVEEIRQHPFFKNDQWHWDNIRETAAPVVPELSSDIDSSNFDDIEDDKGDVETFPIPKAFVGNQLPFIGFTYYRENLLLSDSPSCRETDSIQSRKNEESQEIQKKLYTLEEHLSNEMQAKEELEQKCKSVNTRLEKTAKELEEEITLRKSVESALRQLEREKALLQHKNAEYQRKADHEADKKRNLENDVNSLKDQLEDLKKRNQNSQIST

Structure (SMILES) | IC50 [1] | IC50 [2] | IC50 [3] | survival at one week after ischemia [4] | intraocular pressure reduction [5]
C[C@@H]1CN(c2ccncc2F)CCN1C(=O)NCc1cccc(OC(F)F)c1 [Example 139] | – | 486 nM | 10 nM | – | –
C[C@H](NC(=O)N1CCN(c2ccncc2F)C[C@H]1C)c1cccc2c1N(C)CCO2 [Example 144] | – | 674 nM | 12.8 nM | – | –
C[C@@H](NC(=O)N1CCN(c2ccncc2F)[C@@H](C)C1)c1ccccc1Cl [Example 146] | – | 2090 nM | 110 nM | – | –
COc1cccc(CNC(=O)N2CCN(c3ccncc3F)[C@@H](C)C2)c1 [Example 150] | – | 707 nM | 20.1 nM | – | –
COc1cccc([C@@H](C)NC(=O)N2CCN(c3ccncc3F)[C@@H]3C[C@@H]32)c1 [Example 151] | – | 703 nM | 51.9 nM | – | –
COc1cccc([C@@H](C)NC(=O)N2C[C@H]3C[C@@H]2CN3c2ccncc2F)c1 [Example 153] | – | 2430 nM | 238 nM | – | –
C[C@@H](N)[C@H]1CC[C@H](C(=O)Nc2ccncc2)CC1 [Example Y27632] | – | – | – | 75% | –
C[C@H]1CNCCCN1S(=O)(=O)c1cccc2cncc(F)c12 [Ripasudil] | – | – | – | – | Significant intraocular pressure reduction

Now from value to compound, other results behind:

IC50 [1] | IC50 [2] | IC50 [3] | Structure (SMILES) | survival at one week after ischemia [4] | intraocular pressure reduction [5]
26.3 nM | 323 nM | – | COc1cccc([C@@H](C)NC(=O)N2CCN(c3ccncc3F)C[C@H]2C)c1F [Example 44, (R)—N—((R)-1-(2-Fluoro-3-methoxyphenyl)ethyl)-4-(3-fluoropyridin-4-yl)-2-methylpiperazine-1-carboxamide] | – | –
– | 1.7 nM | 1.8 nM | C[C@@H]1CN(c2ccncc2F)CCN1C(=O)N[C@H](C)c1cccc2c1CCO2 [Example 141] | – | –
– | 9.1 nM | 2.6 nM | C[C@@H]1CN(c2ccncc2F)CCN1C(=O)N[C@H](C)c1cccc2occc12 [Example 142] | – | –
– | 413 nM | 12.4 nM | C[C@@H](NC(=O)N1CCN(c2ccncc2F)[C@@H](C)C1)c1cccc(OC(F)F)c1 [Example 145] | – | –
– | 23 nM | 3.2 nM | C[C@@H](NC(=O)N1CCN(c2ccncc2F)[C@@H](C)C1)c1cccc2c1CCO2 [Example 147] | – | –
– | 248 nM | 16.3 nM | COc1cccc([C@@H](C)NC(=O)N2CCN(c3ccncc3F)[C@H]3C[C@H]32)c1 [Example 152] | – | –
– | 60.2 nM | 19.6 nM | COc1cccc([C@@H](C)NC(=O)N2CCN(c3ccncc3F)CC2C)c1 (stereo partly drawn) [Example 154] | – | –
– | 42.2 nM | 2.7 nM | COc1cccc([C@@H](C)NC(=O)N2CCN(c3ccncc3Cl)C[C@H]2C)c1 [Example 155] | – | –
